Test results: patent US8269000B2, “Substituted pyrimidine and triazine compounds” (Gruenenthal GmbH, priority 2008, dated 2012)

How the values were obtained:
rat B1R = target: T1, rat B1R (Rattus norvegicus, UniProt P97583); experiment: FLIPR Ca2+ functional study on bradykinin receptor 1 (rB1R CHO K1 cells); type: cell-based; conditions: for inhibition at 10 µM: CHO-K1, % inhibition rat B1R at 10 μM, read-out: % inh. (rat B1R) 10 μM
T1 construct: expressed in transfected cells; host or cells: CHO K1 cells
T1 sequence (P97583 1-337): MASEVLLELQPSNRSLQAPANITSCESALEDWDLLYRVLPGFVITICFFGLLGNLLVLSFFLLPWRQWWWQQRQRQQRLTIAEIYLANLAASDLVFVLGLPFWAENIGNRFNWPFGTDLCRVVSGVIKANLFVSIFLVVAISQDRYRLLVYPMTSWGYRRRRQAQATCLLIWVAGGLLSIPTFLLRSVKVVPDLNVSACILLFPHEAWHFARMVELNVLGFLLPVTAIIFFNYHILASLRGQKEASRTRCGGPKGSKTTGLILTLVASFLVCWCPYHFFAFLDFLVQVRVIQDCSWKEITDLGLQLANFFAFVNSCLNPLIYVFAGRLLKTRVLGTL
In short: (§1)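 Antagonism was calculated as % of maximal inhibition of the Ca2+ rise triggered by agonist at EC80 (Lys-Des-Arg9-bradykinin for hB1R, Des-Arg9-bradykinin for rB1R), added 10-20 min after test compound (10 μM or serial dilutions for IC50) to Fluo-4-loaded transfected CHO K1 cells on FLIPR. Duplicates or triplicates, ≥2 independent runs.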

human B1R = target: T2, human B1R (Homo sapiens, UniProt P46663); experiment: FLIPR Ca2+ functional study on bradykinin receptor 1 (hB1R CHO K1 cells); type: cell-based; conditions: % inhibition human B1R at 10 μM; for inhibition at 10 µM: read-out: % inh. (hum. B1R) 10 μM
T2 construct: expressed in transfected cells; host or cells: CHO K1 cells
T2 sequence (P46663 1-353): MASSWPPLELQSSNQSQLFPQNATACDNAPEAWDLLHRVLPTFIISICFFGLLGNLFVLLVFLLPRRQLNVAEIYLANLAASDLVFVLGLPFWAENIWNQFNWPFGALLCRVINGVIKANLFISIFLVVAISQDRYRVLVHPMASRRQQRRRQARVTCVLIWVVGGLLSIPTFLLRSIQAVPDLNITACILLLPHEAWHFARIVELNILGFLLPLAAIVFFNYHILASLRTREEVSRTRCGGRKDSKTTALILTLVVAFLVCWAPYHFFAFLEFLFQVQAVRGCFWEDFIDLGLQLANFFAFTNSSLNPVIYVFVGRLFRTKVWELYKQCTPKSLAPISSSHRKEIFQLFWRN
In short: as §1

Compound | inhibition at 10 µM (rat B1R) | inhibition at 10 µM (human B1R) | % inh. (rat B1R) 10 μM (rat B1R; % inhibition rat B1R at 10 μM) | % inh. (hum. B1R) 10 μM (human B1R)
COc1cc(C)c(S(=O)(=O)N(CCN(C)c2cncc(N3CCC4(CCN(c5ccncc5)CC4)CC3)n2)C2CC2)c(C)c1 [Example I-002, N-cyclopropyl-4-methoxy-2,6-dimethyl-N-[2-[methyl-[6-(9-pyridin-4-yl-3,9-diazaspiro[5.5]undecan-3-yl)-pyrazin-2-yl]-amino]-ethyl]-benzenesulfonic acid amide] | 109% | 94% |  | 
COc1cc(C)c(S(=O)(=O)N2CCC[C@H]2COc2nccc(N3CCC4(CC3)C(=O)NCN4c3ccccc3)n2)c(C)c1 [G_CC-035, 8-[2-[[(2S)-1-(4-methoxy-2,6-dimethylphenyl)sulfonyl-2-pyrrolidinyl]methoxy]-4-pyrimidinyl]-4-phenyl-2,4,8-triazaspiro[4.5]decan-1-one] | 99% | -1% |  | 
COc1cc(C)c(S(=O)(=O)N(C)CCOc2ccnc(N3CCC(CCN4CCCC4)CC3)n2)c(C)c1 [Example H-001, 4-methoxy-N,2,6-trimethyl-N-[2-[[2-[4-(2-1-pyrrolidinylethyl)-1-piperidinyl]-4-pyrimidinyl]oxy]ethyl]benzenesulfonamide] | 99% | 44% |  | 
COc1cc(C)c(S(=O)(=O)N2CCCCC2COc2ccnc(N3CCC4(CCN(c5ccncc5)CC4)CC3)n2)c(C)c1 (centres unmarked) [H_CC-032] |  |  | 101% | 77%
